Source: article PMC7402526, “An in vitro quantitative systems pharmacology approach for deconvolving mechanisms of drug-induced, multilineage cytopenias” (PLoS Computational Biology, 2020)

Assays:
[1] = system: monocyte progenitors (monocyte prog); experiment: MLTA, MonoP: concentration-response and QSP model fit; assay type: cell-based, human; settings: Homo sapiens, Monocyte, 144 h
Method in brief: (§1)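 Freeze-thawed primary human bone marrow CD34+ cells were cultured 6 days in SFEM II with a cytokine cocktail, drug added on day 0. Subsets were counted by 17-parameter flow cytometry with TruCount beads and normalized to vehicle wells. An Emax QSP model (Emax 0–2, L1 regularization) was fitted to these counts.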

granulocytes (Gran-lin) = experiment: MLTA, Gran: concentration-response and QSP model fit; assay type: cell-based, human; settings: Homo sapiens, 144 h
Method in brief: as §1

B cells (B-lin) = experiment: MLTA, B-lin: concentration-response and QSP model fit; assay type: cell-based, human; settings: Homo sapiens, B-cell, 144 h
Method in brief: (§2)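 Six-day flow cytometry counts, bead-normalized and expressed relative to the mean of six vehicle wells, underlie each value. Cells were primary human bone marrow CD34+ cells cultured in SFEM II with cytokines promoting multi-lineage differentiation and self-renewal.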

[2] = system: total dead cells (totalDeadCells); experiment: MLTA, total dead cells concentration-response; assay type: cell-based; settings: Homo sapiens, 144 h, 6 days, normalized to vehicle control, read-out: total_dead normalized cell count
Procedure: (§3) A custom optimized cytokine cocktail was developed using commercially available cytokines (Peprotech, New Jersey) to facilitate simultaneous multi-lineage differentiation and self-renewal of freeze-thawed primary human bone marrow-derived CD34+ cells in SFEM II media (cells and media from StemCell Technologies, Vancouver). Cultures were carried out in ultra-low attachment 96-well plates (Corning, New York) with test article added on day 0 and cultured at 37°C, 85% relative humidity, and 5% CO2 for six days before interrogating drug impact via 17-parameter flow cytometry.
(§4) The flow cytometry panel used to define hematopoietic subsets was composed of CD34-PECy7, CD90-PECY5, CD38-AF488, CD371-PE, CD45Ra-BV421, CD14-BV605, CD42b-AF647, CD10-PEDazzle594, CD235a-PerCPCy5.5 (BioLegend, California), CD15-BUV395, CD41a-APCH7, CD71-BV786 (BD Biosciences, California), and DAPI for dead cell exclusion (ThermoFisher, California). In short, Day 6 cells were harvested, FcR-blocked (FcR binding inhibitor, ThermoFisher), surface-stained, then analyzed in a buffer containing TruCount Control Beads using a BD LSR Fortessa SORP fitted with a high-throughput sampler (BD Biosciences, California). Data was analyzed in Diva 6.0.2 and exported to CSV where after all cell data was transformed to cell per mL then normalized on a per-donor basis to untreated control wells to determine drug impact.
(§5) Donor material was collected and cultured as described above. The number of replicate donor samples per drug ranged from 2–7 and varied per drug (S1 Table). Drug treatment was added at time 0 and cells were maintained in culture for 6 days. Concentrations tested for each drug compound are contained in S1 Table. Concentrations were selected to span a range that is clinically useful. Following treatment, cell populations were measured using flow cytometry. We extracted cell counts from flow cytometry data, normalized to bead counts, and corrected for well volume.
(§6) Each well was normalized to the average of six vehicle control wells. For drugs that were tested across multiple runs of the assay, vehicle-normalized donor data were pooled, and we used the average of these pooled data for further modeling. Normalized data used as model inputs are included in S1 Table.

[3] = system: granulocyte-macrophage progenitor (GMPs); experiment: MLTA, GMPs: concentration-response and QSP model fit; assay type: cell-based, human; settings: Homo sapiens, 144 h, 6 days, normalized to vehicle control, read-out: GMPs normalized cell count
Method in brief: as §2

[4] = system: human bone marrow-derived CD34+ cells differentiated into multiple hematopoietic lineages; experiment: MLTA, overall effects across hematopoietic lineages; assay type: cell-based; settings: QSP model fit; EmaxT > 1.0 = cell-killing
Procedure: as §3, §4, §5, §6
We implemented drug effects using an Emax model for the drug’s effect on each cell type. The 13 maximum effect parameters (EmaxT,C) are unitless and can vary between 0 and 2 and where a subscript, C, represents one of the previously described 13 cell types. We adapted a traditional Emax model using the equations below. We interpreted EmaxT values less than or equal to one as anti-proliferative, and EmaxT values greater than one as indicating a cell-killing mechanism in addition to anti-proliferation. The relationships for these effects are included in the model using the following equations. Eq 2 describes the drug anti-proliferative effect in the net proliferation rate for a given cell type. Eq 3 describes the cell-killing EmaxCK effect.

[5] = system: lymphocyte progenitors (LymP); experiment: MLTA, LymP: concentration-response and QSP model fit; assay type: cell-based, human; settings: Homo sapiens, Lymphocyte, 144 h
Method in brief: as §2

monocytes (monocyte-lin) = experiment: MLTA, Mono: concentration-response and QSP model fit; assay type: cell-based, human; settings: Homo sapiens, Monocyte, 144 h
Method in brief: as §1

MK cells (MK-lin) = experiment: MLTA, MK: concentration-response and QSP model fit; assay type: cell-based, human; settings: Homo sapiens, 144 h
Method in brief: as §2

## CCc1cnn2c(NCc3ccc[n+]([O-])c3)cc(N3CCCC[C@H]3CCO)nc12 [dinaciclib]
[1]; dose 0.2 nM, 6 days, normalized to vehicle control, read-out: MonoPs normalized cell count
  activity at 0.0002 µM: 96.5%
[1]; dose 1 nM, 6 days, normalized to vehicle control, read-out: MonoPs normalized cell count
  activity at 0.001 µM: 106%
[1]; dose 5 nM, 6 days, normalized to vehicle control, read-out: MonoPs normalized cell count
  activity at 0.005 µM: 125%
[1]; dose 25 nM, 6 days, normalized to vehicle control, read-out: MonoPs normalized cell count
  activity at 0.025 µM: 61.8%
[1]; dose 100 nM, 6 days, normalized to vehicle control, read-out: MonoPs normalized cell count
  activity at 0.1 µM: 0.141%
[1]; dose 500 nM, 6 days, normalized to vehicle control, read-out: MonoPs normalized cell count
  activity at 0.5 µM: 0.19%
[1]; dose 2500 nM, 6 days, normalized to vehicle control, read-out: MonoPs normalized cell count
  activity at 2.5 µM: 0.231%
[1]; parameter from QSP model fitting, read-out: Emax_drug_MonoP
  Emax: 0.04%
Granulocytes (Gran-lin); dose 0.2 nM, 6 days, normalized to vehicle control, read-out: Gran normalized cell count
  activity at 0.0002 µM: 96.8%
Granulocytes (Gran-lin); dose 1 nM, 6 days, normalized to vehicle control, read-out: Gran normalized cell count
  activity at 0.001 µM: 120%
Granulocytes (Gran-lin); dose 5 nM, 6 days, normalized to vehicle control, read-out: Gran normalized cell count
  activity at 0.005 µM: 121%
Granulocytes (Gran-lin); dose 25 nM, 6 days, normalized to vehicle control, read-out: Gran normalized cell count
  activity at 0.025 µM: 32.8%
Granulocytes (Gran-lin); dose 100 nM, 6 days, normalized to vehicle control, read-out: Gran normalized cell count
  activity at 0.1 µM: 0.0467%
Granulocytes (Gran-lin); dose 500 nM, 6 days, normalized to vehicle control, read-out: Gran normalized cell count
  activity at 0.5 µM: 0.0554%
Granulocytes (Gran-lin); dose 2500 nM, 6 days, normalized to vehicle control, read-out: Gran normalized cell count
  activity at 2.5 µM: 0.0385%
Granulocytes (Gran-lin); parameter from QSP model fitting, read-out: Emax_drug_Gran
  Emax: 201%
B cells (B-lin); dose 0.2 nM, 6 days, normalized to vehicle control, read-out: B-lin normalized cell count
  activity at 0.0002 µM: 81.8%
B cells (B-lin); dose 1 nM, 6 days, normalized to vehicle control, read-out: B-lin normalized cell count
  activity at 0.001 µM: 90.4%
B cells (B-lin); dose 5 nM, 6 days, normalized to vehicle control, read-out: B-lin normalized cell count
  activity at 0.005 µM: 90.4%
B cells (B-lin); dose 25 nM, 6 days, normalized to vehicle control, read-out: B-lin normalized cell count
  activity at 0.025 µM: 11.7%
B cells (B-lin); dose 100 nM, 6 days, normalized to vehicle control, read-out: B-lin normalized cell count
  activity at 0.1 µM: 0.127%
B cells (B-lin); dose 500 nM, 6 days, normalized to vehicle control, read-out: B-lin normalized cell count
  activity at 0.5 µM: 0.514%
B cells (B-lin); dose 2500 nM, 6 days, normalized to vehicle control, read-out: B-lin normalized cell count
  activity at 2.5 µM: 0.106%
B cells (B-lin); parameter from QSP model fitting, read-out: Emax_drug_B
  Emax: 77.4%
[2]; dose 0.2 nM
  activity at 0.0002 µM: 108%
[2]; dose 1 nM
  activity at 0.001 µM: 106%
[2]; dose 5 nM
  activity at 0.005 µM: 78.9%
[2]; dose 25 nM
  activity at 0.025 µM: 34.8%
[2]; dose 100 nM
  activity at 0.1 µM: 38.7%
[2]; dose 500 nM
  activity at 0.5 µM: 34.1%
[2]; dose 2500 nM
  activity at 2.5 µM: 39.6%
[3]; dose 0.2 nM
  activity at 0.0002 µM: 87%
[3]; dose 1 nM
  activity at 0.001 µM: 111%
[3]; dose 5 nM
  activity at 0.005 µM: 87.6%
[3]; dose 25 nM
  activity at 0.025 µM: 40.3%
[3]; dose 100 nM
  activity at 0.1 µM: 0.755%
[3]; dose 500 nM
  activity at 0.5 µM: 1.71%
[3]; dose 2500 nM
  activity at 2.5 µM: 0.744%
[4]
  EmaxT effects across cell types (overall statement): > 1.0
[5]; dose 0.2 nM, 6 days, normalized to vehicle control, read-out: LymP normalized cell count
  activity at 0.0002 µM: 89.4%
[5]; dose 1 nM, 6 days, normalized to vehicle control, read-out: LymP normalized cell count
  activity at 0.001 µM: 105%
[5]; dose 5 nM, 6 days, normalized to vehicle control, read-out: LymP normalized cell count
  activity at 0.005 µM: 99.3%
[5]; dose 25 nM, 6 days, normalized to vehicle control, read-out: LymP normalized cell count
  activity at 0.025 µM: 38.3%
[5]; dose 100 nM, 6 days, normalized to vehicle control, read-out: LymP normalized cell count
  activity at 0.1 µM: 3.05%
[5]; dose 500 nM, 6 days, normalized to vehicle control, read-out: LymP normalized cell count
  activity at 0.5 µM: 7.81%
[5]; dose 2500 nM, 6 days, normalized to vehicle control, read-out: LymP normalized cell count
  activity at 2.5 µM: 2.53%
[5]; parameter from QSP model fitting, read-out: Emax_drug_LymP
  Emax: 115%
Monocytes (monocyte-lin); dose 0.2 nM, 6 days, normalized to vehicle control, read-out: Mon normalized cell count
  activity at 0.0002 µM: 90.7%
Monocytes (monocyte-lin); dose 1 nM, 6 days, normalized to vehicle control, read-out: Mon normalized cell count
  activity at 0.001 µM: 106%
Monocytes (monocyte-lin); dose 5 nM, 6 days, normalized to vehicle control, read-out: Mon normalized cell count
  activity at 0.005 µM: 69.5%
Monocytes (monocyte-lin); dose 25 nM, 6 days, normalized to vehicle control, read-out: Mon normalized cell count
  activity at 0.025 µM: 8.55%
Monocytes (monocyte-lin); dose 100 nM, 6 days, normalized to vehicle control, read-out: Mon normalized cell count
  activity at 0.1 µM: 0.496%
Monocytes (monocyte-lin); dose 500 nM, 6 days, normalized to vehicle control, read-out: Mon normalized cell count
  activity at 0.5 µM: 0.834%
Monocytes (monocyte-lin); dose 2500 nM, 6 days, normalized to vehicle control, read-out: Mon normalized cell count
  activity at 2.5 µM: 0.535%
Monocytes (monocyte-lin); parameter from QSP model fitting, read-out: Emax_drug_Mono
  Emax: 48.2%
MK cells (MK-lin); dose 0.2 nM, 6 days, normalized to vehicle control, read-out: MK normalized cell count
  activity at 0.0002 µM: 90.3%
MK cells (MK-lin); dose 1 nM, 6 days, normalized to vehicle control, read-out: MK normalized cell count
  activity at 0.001 µM: 111%
MK cells (MK-lin); dose 5 nM, 6 days, normalized to vehicle control, read-out: MK normalized cell count
  activity at 0.005 µM: 71.8%
MK cells (MK-lin); dose 25 nM, 6 days, normalized to vehicle control, read-out: MK normalized cell count
  activity at 0.025 µM: 11.8%
MK cells (MK-lin); dose 100 nM, 6 days, normalized to vehicle control, read-out: MK normalized cell count
  activity at 0.1 µM: 0.294%
MK cells (MK-lin); dose 500 nM, 6 days, normalized to vehicle control, read-out: MK normalized cell count
  activity at 0.5 µM: 0.526%
MK cells (MK-lin); dose 2500 nM, 6 days, normalized to vehicle control, read-out: MK normalized cell count
  activity at 2.5 µM: 0.425%
MK cells (MK-lin); parameter from QSP model fitting, read-out: Emax_drug_MK
  Emax: 33.1%
